One data set can be described thus: in vitro. It counts as cell-based. The note with it: human, HepG2 or HepG2.117 cells, 3-days incubation (unmarked values), ATPlite; mean value. The method, boiled down: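 Luminescent ATP quantitation served as the viability endpoint following a 3- or 4-day incubation with test compounds.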
In general terms: In ATP-based viability assays light output follows the ATP content of the culture.

Data set [1] concerns HBV (HepG2.117 cell line, inducibly HBV producing). Description: Anti-HBV activity: intracellular HBV DNA by real-time PCR in HepG2.117 cells after 3 days of treatment. Format: cell-based, hepatitis B virus. The settings on record: Hepatitis B virus, HepG2.117, 72 h, HepG2.117 cells, 3 days of treatment, intracellular HBV DNA by real-time PCR; mean value; read-out: EC50 (μM, mean value). The procedure, abridged:
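HepG2.117 cells replicate HBV under Tet-off control, without doxycycline. After induction of replication, cells were treated with serially diluted compound for 3 days, and intracellular HBV DNA was then quantified by real-time PCR with an HBV-specific primer set and probe.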
For orientation: Real-time PCR tracks product formation cycle by cycle.

As a reminder, the CC50 is the concentration giving 50% cytotoxicity. A lower CC50 goes with harm at low concentration. One may read the EC50 as the concentration needed to bring the measured effect to its halfway point. In the data set “in vitro”, `CNC(=O)c1ccc(-n2c(N[C@@H](C)c3ccccc3)nc3c(c2=O)C[C@@H](C)N(C(=O)c2ccc(Cl)c(Cl)c2)C3)cc1` [Compound C253, 4-[(6R)-7-(3,4-dichlorobenzoyl)-6-methyl-4-oxo-2-{[(1S)-1-phenylethyl]amino}-5,6,7,8-tetrahydropyrido[3,4-d]pyrimidin-3(4H)-yl]-N-methylbenzamide] returned a CC50 at 3 days of 22.9 µM. In addition, the EC50 in data set [1] came out at 0.1 µM.

Regarding `CC(C)Nc1nc2c(c(=O)n1[C@H]1CC[C@H](C(=O)O)CC1)C[C@@H](C)N(C(=O)c1ccc(Cl)c(Cl)c1)C2` [Compound C254, trans-4-[(6R)-7-(3,4-dichlorobenzoyl)-6-methyl-4-oxo-2-[(propan-2-yl)amino]-5,6,7,8-tetrahydropyrido[3,4-d]pyrimidin-3(4H)-yl]cyclohexane-1-carboxylic acid], the CC50 at 3 days in “in vitro” is > 50 µM. For the same compound, the EC50 in data set [1] amounted to 1.99 µM.

For `CNC(=O)[C@H]1CC[C@H](n2c(NC(C)C)nc3c(c2=O)C[C@@H](C)N(C(=O)c2ccc(Cl)c(Cl)c2)C3)CC1` [Compound C255, trans-4-[(6R)-7-(3,4-dichlorobenzoyl)-6-methyl-4-oxo-2-[(propan-2-yl)amino]-5,6,7,8-tetrahydropyrido[3,4-d]pyrimidin-3(4H)-yl]-N-methylcyclohexane-1-carboxamide], the CC50 at 3 days in the data set “in vitro” was > 50 µM. Also, the EC50 in data set [1] was determined as 0.09 µM.

As to `CC[C@@H](C)Nc1nc2c(c(=O)n1-c1ccc(C(=O)NC)cc1)C[C@@H](C)N(C(=O)c1ccc(Cl)c(Cl)c1)C2` [Compound C258, 4-[(6R)-2-{[(2R)-butan-2-yl]amino}-7-(3,4-dichlorobenzoyl)-6-methyl-4-oxo-5,6,7,8-tetrahydropyrido[3,4-d]pyrimidin-3(4H)-yl]-N-methylbenzamide], in “in vitro”, the CC50 at 3 days was > 50 µM. The EC50 in data set [1] came out at 0.05 µM.

Turning to `CNC(=O)C12CC(n3c(NC(C)C)nc4c(c3=O)C[C@@H](C)N(C(=O)c3ccc(Cl)c(Cl)c3)C4)(C1)C2` [Compound C261, 3-[(6R)-7-(3,4-dichlorobenzoyl)-6-methyl-4-oxo-2-[(propan-2-yl)amino]-5,6,7,8-tetrahydropyrido[3,4-d]pyrimidin-3(4H)-yl]-N-methylbicyclo[1.1.1]pentane-1-carboxamide], the CC50 at 3 days in “in vitro” was > 50 µM. In data set [1], the EC50 came out at 0.34 µM.

`CC(C)Nc1nc2c(c(=O)n1[C@H]1CC[C@@H](S(C)(=O)=O)CC1)C[C@@H](C)N(C(=O)c1ccc(Cl)c(Cl)c1)C2` [Compound C262, (6R)-7-(3,4-dichlorobenzoyl)-3-[cis-4-(methanesulfonyl)cyclohexyl]-6-methyl-2-[(propan-2-yl)amino]-5,6,7,8-tetrahydropyrido[3,4-d]pyrimidin-4(3H)-one]: the CC50 at 3 days in “in vitro” was 22.5 µM. Besides, in data set [1], the EC50 worked out at 0.11 µM.

Take `CNc1noc2ccc(-n3c(NC(C)C)nc4c(c3=O)C[C@@H](C)N(C(=O)c3ccc(Cl)c(Cl)c3)C4)cc12` [Compound C263, (6R)-7-(3,4-dichlorobenzoyl)-6-methyl-3-[3-(methylamino)-1,2-benzoxazol-5-yl]-2-[(propan-2-yl)amino]-5,6,7,8-tetrahydropyrido[3,4-d]pyrimidin-4(3H)-one]: the CC50 at 3 days in the data set “in vitro” was > 50 µM. Further, the EC50 in data set [1] was determined as 0.17 µM.

Regarding `Cc1noc(C)c1-c1ccc(-n2c(NC(C)C)nc3c(c2=O)C[C@@H](C)N(C(=O)c2ccc(Cl)c(Cl)c2)C3)cn1` [Compound C264, (6R)-7-(3,4-dichlorobenzoyl)-3-[6-(3,5-dimethyl-1,2-oxazol-4-yl)pyridin-3-yl]-6-methyl-2-[(propan-2-yl)amino]-5,6,7,8-tetrahydropyrido[3,4-d]pyrimidin-4(3H)-one], the CC50 at 3 days in the data set “in vitro” was > 50 µM. Also, the EC50 in data set [1] was found to be 0.26 µM.

On to `CNC(=O)c1ccc(-n2c(NC(C)C)nc3c(c2=O)C[C@@H](C)N(C(=O)c2ccc(Cl)c(Cl)c2)C3)cn1` [Compound C265], for which, in “in vitro”, the CC50 at 3 days was > 50 µM. The EC50 in data set [1] is 0.18 µM.

Regarding `CC(C)Nc1nc2c(c(=O)n1-c1ccc(C(=O)NC3(C(=O)O)CC3)cc1)C[C@@H](C)N(C(=O)c1ccc(Cl)c(Cl)c1)C2` [Compound C266, 1-{4-[(6R)-7-(3,4-dichlorobenzoyl)-6-methyl-4-oxo-2-[(propan-2-yl)amino]-5,6,7,8-tetrahydropyrido[3,4-d]pyrimidin-3(4H)-yl]benzamido}cyclopropane-1-carboxylic acid], the CC50 at 3 days in “in vitro” was > 50 µM. In addition, in data set [1], the EC50 was determined as 13.4 µM.

Regarding `COC(=O)c1ccn(-c2ccc(-n3c(NC(C)C)nc4c(c3=O)C[C@@H](C)N(C(=O)c3ccc(Cl)c(Cl)c3)C4)cc2)n1` [Compound C267, methyl 1-{4-[(6R)-7-(3,4-dichlorobenzoyl)-6-methyl-4-oxo-2-[(propan-2-yl)amino]-5,6,7,8-tetrahydropyrido[3,4-d]pyrimidin-3(4H)-yl]phenyl}-1H-pyrazole-3-carboxylate], the CC50 at 3 days in the data set “in vitro” was > 50 µM. The EC50 in data set [1] was 0.21 µM.

As to `CNC(=O)c1ccc(-n2c(NC(C)(C)C)nc3c(c2=O)C[C@@H](C)N(C(=O)c2ccc(Cl)c(Cl)c2)C3)cc1` [Compound C269, 4-[(6R)-2-(tert-butylamino)-7-(3,4-dichlorobenzoyl)-6-methyl-4-oxo-5,6,7,8-tetrahydropyrido[3,4-d]pyrimidin-3(4H)-yl]-N-methylbenzamide], in the data set “in vitro”, the CC50 at 3 days is > 50 µM. Further, in data set [1], the EC50 is 0.05 µM.

Compound `CNC(=O)c1ccc(-n2c(N3CCC[C@@H]3C)nc3c(c2=O)C[C@@H](C)N(C(=O)c2ccc(Cl)c(Cl)c2)C3)cc1` [Compound C271, 4-[(6R)-7-(3,4-dichlorobenzoyl)-6-methyl-2-[(2S)-2-methylpyrrolidin-1-yl]-4-oxo-5,6,7,8-tetrahydropyrido[3,4-d]pyrimidin-3(4H)-yl]-N-methylbenzamide] had a CC50 at 3 days in the data set “in vitro” of 24.9 µM. Besides, the EC50 in data set [1] worked out at 0.27 µM.

Consider `CNC(=O)c1ccc(-n2c(N[C@@H](C)CO)nc3c(c2=O)C[C@@H](C)N(C(=O)c2ccc(Cl)c(Cl)c2)C3)cc1` [Compound C272, 4-[(6R)-7-(3,4-dichlorobenzoyl)-2-{[(2S)-1-hydroxypropan-2-yl]amino}-6-methyl-4-oxo-5,6,7,8-tetrahydropyrido[3,4-d]pyrimidin-3(4H)-yl]-N-methylbenzamide], for which, in “in vitro”, the CC50 at 3 days was > 50 µM. Besides, in data set [1], the EC50 was 2.39 µM.

Take `CCOC(=O)[C@H]1CC[C@@H](n2c(NC(C)C)nc3c(c2=O)C[C@@H](C)N(C(=O)c2ccc(Cl)c(Cl)c2)C3)CC1` [Compound C273, ethyl cis-4-[(6R)-7-(3,4-dichlorobenzoyl)-6-methyl-4-oxo-2-[(propan-2-yl)amino]-5,6,7,8-tetrahydropyrido[3,4-d]pyrimidin-3(4H)-yl]cyclohexane-1-carboxylate]: it took 33.4 µM to reach half-maximal cytotoxicity in “in vitro” (CC50 at 3 days). In addition, the EC50 in data set [1] is 0.31 µM.

Turning to `CNC(=O)c1ccc(-n2c(NC(C)C)nc3c(c2=O)C[C@@H](C)N(C(=O)c2ccc(Cl)c(Cl)c2)C3)cc1F` [Compound C274, 4-[(6R)-7-(3,4-dichlorobenzoyl)-6-methyl-4-oxo-2-[(propan-2-yl)amino]-5,6,7,8-tetrahydropyrido[3,4-d]pyrimidin-3(4H)-yl]-2-fluoro-N-methylbenzamide], in the data set “in vitro”, the 50% cytotoxic concentration (CC50) at 3 days is > 50 µM. For the same compound, the 50% effective concentration (EC50) in data set [1] amounted to 0.09 µM.

Consider `CNC(=O)c1ccc(-n2c(NCc3c[nH]c4ccc(OC)cc34)nc3c(c2=O)C[C@@H](C)N(C(=O)c2ccc(Cl)c(Cl)c2)C3)cc1` [Compound C275, 4-[(6R)-7-(3,4-dichlorobenzoyl)-2-{[(5-methoxy-1H-indol-3-yl)methyl]amino}-6-methyl-4-oxo-5,6,7,8-tetrahydropyrido[3,4-d]pyrimidin-3(4H)-yl]-N-methylbenzamide], for which the CC50 at 3 days in the data set “in vitro” is > 50 µM. Moreover, the EC50 in data set [1] was determined as 1.58 µM.

Take `CNC(=O)c1ccc(-n2c(N[C@@H](C)CCO)nc3c(c2=O)C[C@@H](C)N(C(=O)c2ccc(Cl)c(Cl)c2)C3)cc1` [Compound C276, 4-[(6R)-7-(3,4-dichlorobenzoyl)-2-{[(2S)-4-hydroxybutan-2-yl]amino}-6-methyl-4-oxo-5,6,7,8-tetrahydropyrido[3,4-d]pyrimidin-3(4H)-yl]-N-methylbenzamide]: the CC50 at 3 days in the data set “in vitro” is > 50 µM. For the same compound, in data set [1], the EC50 stood at 1.68 µM.

For `CNC(=O)c1ccc(-n2c(NCc3c[nH]c4ccccc34)nc3c(c2=O)C[C@@H](C)N(C(=O)c2ccc(Cl)c(Cl)c2)C3)cc1` [Compound C277, 4-[(6R)-7-(3,4-dichlorobenzoyl)-2-{[(1H-indol-3-yl)methyl]amino}-6-methyl-4-oxo-5,6,7,8-tetrahydropyrido[3,4-d]pyrimidin-3(4H)-yl]-N-methylbenzamide], the CC50 at 3 days in the data set “in vitro” turned out to be 40.1 µM. Besides, the EC50 in data set [1] turned out to be 1.27 µM.

Consider `CNC(=O)c1ccc(-n2c(Nc3ccon3)nc3c(c2=O)C[C@@H](C)N(C(=O)c2ccc(Cl)c(Cl)c2)C3)cc1` [Compound C278, 4-[(6R)-7-(3,4-dichlorobenzoyl)-6-methyl-2-[(1,2-oxazol-3-yl)amino]-4-oxo-5,6,7,8-tetrahydropyrido[3,4-d]pyrimidin-3(4H)-yl]-N-methylbenzamide], for which the CC50 at 3 days in the data set “in vitro” is > 50 µM. Moreover, the EC50 in data set [1] was 11 µM.

As to `CC(C)Nc1ncc(-n2c(NC(C)C)nc3c(c2=O)C[C@@H](C)N(C(=O)c2ccc(Cl)c(Cl)c2)C3)cn1` [Compound C279, (6R)-7-(3,4-dichlorobenzoyl)-6-methyl-2-[(propan-2-yl)amino]-3-{2-[(propan-2-yl)amino]pyrimidin-5-yl}-5,6,7,8-tetrahydropyrido[3,4-d]pyrimidin-4(3H)-one], the CC50 at 3 days in “in vitro” was > 46 µM. Besides, the EC50 in data set [1] was determined as 0.31 µM.

(Values after patent US20230091047A1 (priority 2019, published 2023).)
